Source: patent US11844772B2, “Method for treating rhabdoid tumors” (Lantern Pharma Inc., priority 2020, dated 2023)

Key:
CHLA06 xenograft tumors = test: in vivo xenograft tumor study, animal model of atypical teratoid rhabdoid tumor (ATRT); design: species or system NOD SCID mice
Protocol: LP-184 or HydroxyUreaMethyl Acylfulvene with a negative optical activity was tested for anti-tumor efficacy in an in vivo xenograft tumor study by Lantern Pharma. […] LP-184 was administered after (treatment model) the onset of disease. CHLA06 cells were implanted subcutaneously in non-obese diabetic severe combined immunodeficiency (NOD SCID) mice, formed xenograft tumors, and were thereafter treated either with vehicle control of 95% saline/5% ethanol (N=10) or 2 mg/kg or 4 mg/kg LP-184 (N=10) administered as intravenous injections.
LP-184 was delivered as 5 every other day doses over 2 cycles with a break of 5 days between cycles (IV/QaD×5on/5off×2), i.e., dosing occurred on days 0, 2, 4, 6. 8, 14, 16, 18, 20, and 22 of the study. LP-184 treatment was started 4 weeks after implantation when the tumors reached a group average volume of 150 mm^3. […] 2 out of 10 mice in the 4 mg/kg LP-184 treatment group were virtually tumor-free at study termination (tumor volume 0.5 mm^3). […] The results are highlighted in FIG. 2, wherein the Y axis denotes tumor volume in mm^3 and X axis denotes days post, treatment initiation. Since tumor growth was established before administration of the anti-cancer study drug, the defining feature of the treatment tumor model, anti-tumor treatment effects may thus be appropriately attributed to LP-184.
In CHLA06 xenograft models, tumors from the vehicle control treated mice appear vividly large (length range 1.5-2 cm) whereas tumors from 4 mg/kg LP-184 treated animals shrunk remarkably (length less than 0.5 cm) or have fully regressed.

[1] = test system: panel of 3 ATRT cell lines; test: LP-184 sensitivity in a panel of 3 ATRT cell lines; assay type: cell-based; settings: 2 of the 3 ATRT cell lines (high sensitivity)
Excerpt: (§1) Patients receive several types of treatment, which may include surgery, chemotherapy and radiation, but the overall 2-year survival rate remains less than 15% for children aged younger than 3 years at diagnosis. ATRTs commonly have mutations in or loss of the gene SMARCB1. Increased LP-184 sensitivity correlates with decreased expression of SMARCB1. The panel of 3 ATRT cell lines, 2 of the 3 lines show evidence of high sensitivity to HydroxyUreaMethyl Acylfulvene (having a negative optical activity) or LP-184 with IC50s for those 2 being lower than 200 nM.

[2] = test system: CHLA-06 (group 2A/B) ATRT cell line; test: LP-184 sensitivity in ATRT cell line CHLA-06; assay type: cell-based
Excerpt: as §1

[3] = test system: CHLA-02 (group 1) ATRT cell line; test: LP-184 sensitivity in ATRT cell line CHLA-02; assay type: cell-based
Excerpt: as §1

[4] = test system: CHLA-05 (group 1) ATRT cell line; test: LP-184 sensitivity in ATRT cell line CHLA-05; assay type: cell-based
Excerpt: as §1

## CC1=C(CN(O)C(N)=O)C2=C(C)C3(CC3)[C@@](C)(O)C(=O)C2=C1 [LP-184, HydroxyUreaMethyl Acylfulvene]
CHLA06 xenograft tumors; 4 mg/kg IV group, N=10
  mice virtually tumor-free at study termination: 2 out of 10
CHLA06 xenograft tumors; 4 mg/kg IV group, study termination
  tumor volume of virtually tumor-free mice: 0.5 mm^3
CHLA06 xenograft tumors; 4 mg/kg LP-184 treated animals, vehicle 1.5-2 cm
  tumor length (photographs at end of experiment): less than 0.5 cm
CHLA06 xenograft tumors; LP-184 treated groups (2 or 4 mg/kg IV), end of study day 42
  tumor regression, on average: near complete tumor regression
CHLA06 xenograft tumors; day 40, final dose on day 22
  tumor regrowth after final dose: no tumor regrowth
CHLA06 xenograft tumors; relative to control, IV QoDx5 on/5 off x2, 2 mg/kg or 4 mg/kg
  Tumor growth inhibition: 112%
[1]
  IC50: < 0.2 µM
[2]
  IC50: 0.0374 µM
[3]
  IC50: 1.77 µM
[4]
  IC50: 0.162 µM
